According to patent US9464071B2 (priority 2010, dated 2016):
Where “and” joins values, the source holds several entries; their conditions need not be identical. Equal values may be shown once.

In order of rising melting point:
1. CCOc1cc(F)cc(N(CCN)c2ccc3ncc(-c4cnn(C)c4)nc3c2)c1 [Compound 478]  70 °C
2. CNCCN(c1cc(F)cc(OC)c1)c1ccc2ncc(-c3cnn(C)c3)nc2c1 [Compound 510]  70 °C
3. COc1cc(OC)cc(N(CCCn2cccn2)c2ccc3ncc(-c4cnn(C)c4)nc3c2)c1 [Compound 448]  80 °C
4. COc1cc(F)cc(N(CCN)c2ccc3ncc(-c4cnn(C)c4)nc3c2)c1 [Compound 488]  96.65 °C
5. COc1cc(OC)cc(N(CCCN2CCC(F)(F)C2)c2ccc3ncc(-c4cnn(CC5CCOCC5)c4)nc3c2)c1 [Compound 459]  99.32 °C
6. COc1cc(OC)cc(N(CCN2CCN(CCO)CC2)c2ccc3ncc(-c4cnn(C)c4)nc3c2)c1 [Compound 528]  110.16 °C
7. COc1cc(OC)cc(N(CCCN2CC(F)(F)C2)c2ccc3ncc(-c4cnn(C)c4)nc3c2)c1 [Compound 377]  112.31 °C
8. COc1cc(OC)cc(N(CCNC(C)C)c2ccc3ncc(-c4cnn(CCC#N)c4)nc3c2)c1 [Compound 642]  127 °C
9. COc1cc(OC)cc(N(CCC(=O)N(C)OC)c2ccc3ncc(-c4cnn(C)c4)nc3c2)c1 [Compound 633]  130 °C
10. COc1cc(OC)cc(N(CC(O)CN2CCOCC2)c2ccc3ncc(-c4cnn(C)c4)nc3c2)c1 (stereo not drawn) [Compound 540]  130.63 °C
11. COCC(O)CN(c1cc(OC)cc(OC)c1)c1ccc2ncc(-c3cnn(C)c3)nc2c1 (stereo not drawn) [Compound 397]  132.82 °C
12. CNC(=O)Cn1cc(-c2cnc3ccc(N(CCCNC(C)C)c4cc(OC)cc(OC)c4)cc3n2)cn1 [Compound 615]  134 °C
13. COc1cc(OC)cc(N(CCN2CCN(C3CCN(C(C)=O)CC3)CC2)c2ccc3ncc(-c4cnn(C)c4)nc3c2)c1 [Compound 583]  136.49 °C
14. CCOc1cc(F)cc(N(CCO)c2ccc3ncc(-c4cnn(C)c4)nc3c2)c1 [Compound 401]  138 °C
15. COc1cc(OC)cc(N(Cc2ccncc2)c2ccc3ncc(-c4cnn(C)c4)nc3c2)c1 [Compound 569]  139 °C
16. COc1ccc(OC)c(N(CCN)c2ccc3ncc(-c4cn[nH]c4)nc3c2)c1 [Compound 438]  140.67 °C
17. COc1cc(OC)cc(N(CCN2CCC(N(C)C)C2)c2ccc3ncc(-c4cnn(C)c4)nc3c2)c1 (stereo not drawn) [Compound 456]  143.58 °C
18. COc1cc(OC)cc(N(CCN2CCC(F)(F)CC2)c2ccc3ncc(-c4cnn(C)c4)nc3c2)c1 [Compound 431]  147.77 °C
19. COc1cc(F)cc(N(CCCO)c2ccc3ncc(-c4cnn(C)c4)nc3c2)c1 [Compound 565]  152 °C
20. COc1cc(OC)cc(N(CCCNCC(N)=O)c2ccc3ncc(-c4cnn(C)c4)nc3c2)c1 [Compound 641]  155 °C
21. COc1cc(OC)cc(N(CCCN2CCC(F)(F)C2)c2ccc3ncc(-c4cnn(C)c4)nc3c2)c1 [Compound 602]  158.84 °C
22. COc1cc(OC)cc(N(CCNCC(F)F)c2ccc3ncc(-c4cnn(C)c4)nc3c2)c1 [Compound 513]  160.65 °C
23. COc1cc(OC)cc(N(Cc2cccnc2)c2ccc3ncc(-c4cnn(C)c4)nc3c2)c1 [Compound 568]  164.5 °C
24. COc1cc(OC)cc(N(C[C@@H](O)CN2CC[C@H](C#N)C2)c2ccc3ncc(-c4cnn(C)c4)nc3c2)c1 [Compound 526]  234.8 °C
25. [2H]C([2H])([2H])Oc1cc(OC)cc(N(CCNC(C)C)c2ccc3ncc(-c4cn[nH]c4)nc3c2)c1 [Compound 432]  251.77 °C

In the case of `COc1cc(OC)cc(N(CCCc2cc(C)ccn2)c2ccc3ncc(-c4cnn(C)c4)nc3c2)c1` [Compound 635], the melting point is reported as 110 °C and 111 °C.
With `COc1cc(OC)cc(N(CC#Cc2ncccc2OC)c2ccc3ncc(-c4cnn(C)c4)nc3c2)c1` [Compound 652, N-(3,5-Dimethoxyphenyl)-N-[3-(3-methoxypyridin-2-yl)prop-2-yn-1-yl]-3-(1-methyl-1H-pyrazol-4-yl)quinoxalin-6-amine] the melting point was 144 °C and 142 °C.
